Species on record: Rattus norvegicus
Experiment: DrugMatrix - Regimen: Daily Repeat
Format: toxicity, organism-based, Sprague-Dawley
Design: regimen Daily Repeat, gender Male, age 6-8 weeks
Conditions: in vivo, po, 72 h, route oral GAVAGE, time 3 day, vehicle .5 % CMC; for ABSOLUTE BASOPHIL / ABSOLUTE EOSINOPHIL / ABSOLUTE LYMPHOCYTE / ABSOLUTE MONOCYTE / ABSOLUTE SEGMENTED NEUTROPHIL / BASOPHIL / EOSINOPHIL / ERYTHROCYTE COUNT / HEMATOCRIT / HEMOGLOBIN / LEUKOCYTE COUNT / LYMPHOCYTE / MEAN CORPUSCULAR HEMOGLOBIN / MEAN CORPUSCULAR HEMOGLOBIN CONCENTRATION / MEAN CORPUSCULAR VOLUME / MONOCYTE / NEUTROPHIL / NUCLEATED RED BLOOD CELLS / PLATELET COUNT: tissue Blood; for ALANINE AMINOTRANSFERASE / ALBUMIN / ALKALINE PHOSPHATASE / ASPARTATE AMINOTRANSFERASE / BLOOD UREA NITROGEN / CARBON DIOXIDE / CHLORIDE / CHOLESTEROL / CREATINE PHOSPHOKINASE / CREATININE / GLUCOSE / LACTATE DEHYDROGENASE / LIPASE / PHOSPHORUS / POTASSIUM / SODIUM / TOTAL BILIRUBIN / TOTAL PROTEIN / URIC ACID: tissue Plasma

With `C=C1CC[C@H](O)C/C1=C/C=C1\CCC[C@]2(C)[C@@H]([C@H](C)/C=C/[C@H](C)C(C)C)CC[C@@H]12` [ERGOCALCIFEROL] the “ABSOLUTE BASOPHIL” value (0 mg/kg, dose level Control) was 0 CELLS/uL, the “ABSOLUTE EOSINOPHIL” value (0 mg/kg, dose level Control) was 8.83 CELLS/uL and the “ABSOLUTE LYMPHOCYTE” value (0 mg/kg, dose level Control) was 7222.33 CELLS/uL. The “ABSOLUTE MONOCYTE” value (0 mg/kg, dose level Control) was 0 CELLS/uL, the “ABSOLUTE SEGMENTED NEUTROPHIL” value (0 mg/kg, dose level Control) was 752.17 CELLS/uL and the BASOPHIL (0 mg/kg, dose level Control) was 0%. The EOSINOPHIL (0 mg/kg, dose level Control) was 0.17%, the “ERYTHROCYTE COUNT” value (0 mg/kg, dose level Control) was 5.22 x10E6/uL and the HEMATOCRIT (0 mg/kg, dose level Control) was 32.6%. The HEMOGLOBIN (0 mg/kg, dose level Control) was 12.43 G/DL, the “LEUKOCYTE COUNT” value (0 mg/kg, dose level Control) was 7.98 x10E3/uL and the LYMPHOCYTE (0 mg/kg, dose level Control) was 91.17%. The “MEAN CORPUSCULAR HEMOGLOBIN” value (0 mg/kg, dose level Control) was 23.87 pg, the “MEAN CORPUSCULAR HEMOGLOBIN CONCENTRATION” value (0 mg/kg, dose level Control) was 38.18 G/DL and the “MEAN CORPUSCULAR VOLUME” value (0 mg/kg, dose level Control) was 62.48 fL. For the same compound, the MONOCYTE (0 mg/kg, dose level Control) was 0%, the NEUTROPHIL (0 mg/kg, dose level Control) was 8.67% and the “NUCLEATED RED BLOOD CELLS” value (0 mg/kg, dose level Control) was 0 /100WBC. The “PLATELET COUNT” value (0 mg/kg, dose level Control) was 1082.33 x10E3/uL, the “ALANINE AMINOTRANSFERASE” value (0 mg/kg, dose level Control) was 42.17 u/L and the ALBUMIN (0 mg/kg, dose level Control) was 4.33 G/DL. The “ALKALINE PHOSPHATASE” value (0 mg/kg, dose level Control) was 451.17 u/L, the “ASPARTATE AMINOTRANSFERASE” value (0 mg/kg, dose level Control) was 76.17 u/L and the “BLOOD UREA NITROGEN” value (0 mg/kg, dose level Control) was 13.33 mg/dL. For the same compound, the “CARBON DIOXIDE” value (0 mg/kg, dose level Control) was 31.67 mmol/L, the CHLORIDE (0 mg/kg, dose level Control) was 96.5 MEQ/L and the CHOLESTEROL (0 mg/kg, dose level Control) was 78 mg/dL. For the same compound, the “CREATINE PHOSPHOKINASE” value (0 mg/kg, dose level Control) was 216.5 u/L, the CREATININE (0 mg/kg, dose level Control) was 0.22 mg/dL and the GLUCOSE (0 mg/kg, dose level Control) was 137 mg/dL. For the same compound, the “LACTATE DEHYDROGENASE” value (0 mg/kg, dose level Control) was 138.5 u/L, the LIPASE (0 mg/kg, dose level Control) was 8.67 u/L and the PHOSPHORUS (0 mg/kg, dose level Control) was 12.68 mg/dL. For the same compound, the POTASSIUM (0 mg/kg, dose level Control) was 6.23 MEQ/L, the SODIUM (0 mg/kg, dose level Control) was 143.47 MEQ/L and the “TOTAL BILIRUBIN” value (0 mg/kg, dose level Control) was 0.15 mg/dL. For the same compound, the “TOTAL PROTEIN” value (0 mg/kg, dose level Control) was 6.33 G/DL, the “URIC ACID” value (0 mg/kg, dose level Control) was 1.1 mg/dL and the “ABSOLUTE BASOPHIL” value (1 mg/kg, dose level Low) was 0 CELLS/uL. The “ABSOLUTE EOSINOPHIL” value (1 mg/kg, dose level Low) was 30.67 CELLS/uL, the “ABSOLUTE LYMPHOCYTE” value (1 mg/kg, dose level Low) was 8277.33 CELLS/uL and the “ABSOLUTE MONOCYTE” value (1 mg/kg, dose level Low) was 0 CELLS/uL. For the same compound, the “ABSOLUTE SEGMENTED NEUTROPHIL” value (1 mg/kg, dose level Low) was 658.67 CELLS/uL, the BASOPHIL (1 mg/kg, dose level Low) was 0% and the EOSINOPHIL (1 mg/kg, dose level Low) was 0.33%. The “ERYTHROCYTE COUNT” value (1 mg/kg, dose level Low) was 5.18 x10E6/uL, the HEMATOCRIT (1 mg/kg, dose level Low) was 32.07% and the HEMOGLOBIN (1 mg/kg, dose level Low) was 12.3 G/DL. For the same compound, the “LEUKOCYTE COUNT” value (1 mg/kg, dose level Low) was 8.97 x10E3/uL, the LYMPHOCYTE (1 mg/kg, dose level Low) was 92.33% and the “MEAN CORPUSCULAR HEMOGLOBIN” value (1 mg/kg, dose level Low) was 23.7 pg. For the same compound, the “MEAN CORPUSCULAR HEMOGLOBIN CONCENTRATION” value (1 mg/kg, dose level Low) was 38.37 G/DL, the “MEAN CORPUSCULAR VOLUME” value (1 mg/kg, dose level Low) was 61.9 fL and the MONOCYTE (1 mg/kg, dose level Low) was 0%. The NEUTROPHIL (1 mg/kg, dose level Low) was 7.33%, the “NUCLEATED RED BLOOD CELLS” value (1 mg/kg, dose level Low) was 0.33 /100WBC and the “PLATELET COUNT” value (1 mg/kg, dose level Low) was 1019.33 x10E3/uL. The “ALANINE AMINOTRANSFERASE” value (1 mg/kg, dose level Low) was 47 u/L, the ALBUMIN (1 mg/kg, dose level Low) was 4.37 G/DL and the “ALKALINE PHOSPHATASE” value (1 mg/kg, dose level Low) was 374.33 u/L. For the same compound, the “ASPARTATE AMINOTRANSFERASE” value (1 mg/kg, dose level Low) was 77.33 u/L, the “BLOOD UREA NITROGEN” value (1 mg/kg, dose level Low) was 13.33 mg/dL and the “CARBON DIOXIDE” value (1 mg/kg, dose level Low) was 31 mmol/L. For the same compound, the CHLORIDE (1 mg/kg, dose level Low) was 97.33 MEQ/L, the CHOLESTEROL (1 mg/kg, dose level Low) was 71.67 mg/dL and the “CREATINE PHOSPHOKINASE” value (1 mg/kg, dose level Low) was 205 u/L. The CREATININE (1 mg/kg, dose level Low) was 0.28 mg/dL, the GLUCOSE (1 mg/kg, dose level Low) was 142 mg/dL and the “LACTATE DEHYDROGENASE” value (1 mg/kg, dose level Low) was 139.33 u/L. For the same compound, the LIPASE (1 mg/kg, dose level Low) was 8 u/L, the PHOSPHORUS (1 mg/kg, dose level Low) was 13.07 mg/dL and the POTASSIUM (1 mg/kg, dose level Low) was 6.56 MEQ/L. For the same compound, the SODIUM (1 mg/kg, dose level Low) was 144.27 MEQ/L, the “TOTAL BILIRUBIN” value (1 mg/kg, dose level Low) was 0.17 mg/dL and the “TOTAL PROTEIN” value (1 mg/kg, dose level Low) was 6.43 G/DL. The “URIC ACID” value (1 mg/kg, dose level Low) was 1.17 mg/dL, the “ABSOLUTE BASOPHIL” value (15 mg/kg, dose level High) was 0 CELLS/uL and the “ABSOLUTE EOSINOPHIL” value (15 mg/kg, dose level High) was 0 CELLS/uL. For the same compound, the “ABSOLUTE LYMPHOCYTE” value (15 mg/kg, dose level High) was 7628 CELLS/uL, the “ABSOLUTE MONOCYTE” value (15 mg/kg, dose level High) was 40.67 CELLS/uL and the “ABSOLUTE SEGMENTED NEUTROPHIL” value (15 mg/kg, dose level High) was 1198 CELLS/uL. For the same compound, the BASOPHIL (15 mg/kg, dose level High) was 0%, the EOSINOPHIL (15 mg/kg, dose level High) was 0% and the “ERYTHROCYTE COUNT” value (15 mg/kg, dose level High) was 5.54 x10E6/uL. For the same compound, the HEMATOCRIT (15 mg/kg, dose level High) was 34.3%, the HEMOGLOBIN (15 mg/kg, dose level High) was 13.2 G/DL and the “LEUKOCYTE COUNT” value (15 mg/kg, dose level High) was 8.87 x10E3/uL. For the same compound, the LYMPHOCYTE (15 mg/kg, dose level High) was 86.67%, the “MEAN CORPUSCULAR HEMOGLOBIN” value (15 mg/kg, dose level High) was 23.83 pg and the “MEAN CORPUSCULAR HEMOGLOBIN CONCENTRATION” value (15 mg/kg, dose level High) was 38.5 G/DL. The “MEAN CORPUSCULAR VOLUME” value (15 mg/kg, dose level High) was 61.97 fL, the MONOCYTE (15 mg/kg, dose level High) was 0.33% and the NEUTROPHIL (15 mg/kg, dose level High) was 13%. For the same compound, the “NUCLEATED RED BLOOD CELLS” value (15 mg/kg, dose level High) was 0.33 /100WBC, the “PLATELET COUNT” value (15 mg/kg, dose level High) was 1196.67 x10E3/uL and the “ALANINE AMINOTRANSFERASE” value (15 mg/kg, dose level High) was 55 u/L. For the same compound, the ALBUMIN (15 mg/kg, dose level High) was 4.43 G/DL, the “ALKALINE PHOSPHATASE” value (15 mg/kg, dose level High) was 367.33 u/L and the “ASPARTATE AMINOTRANSFERASE” value (15 mg/kg, dose level High) was 84 u/L. The “BLOOD UREA NITROGEN” value (15 mg/kg, dose level High) was 14.33 mg/dL, the “CARBON DIOXIDE” value (15 mg/kg, dose level High) was 31.67 mmol/L and the CHLORIDE (15 mg/kg, dose level High) was 93.33 MEQ/L. The CHOLESTEROL (15 mg/kg, dose level High) was 74.33 mg/dL, the “CREATINE PHOSPHOKINASE” value (15 mg/kg, dose level High) was 211.67 u/L and the CREATININE (15 mg/kg, dose level High) was 0.24 mg/dL. For the same compound, the GLUCOSE (15 mg/kg, dose level High) was 139.33 mg/dL, the “LACTATE DEHYDROGENASE” value (15 mg/kg, dose level High) was 153 u/L and the LIPASE (15 mg/kg, dose level High) was 8.33 u/L. The PHOSPHORUS (15 mg/kg, dose level High) was 13.23 mg/dL, the POTASSIUM (15 mg/kg, dose level High) was 6.15 MEQ/L and the SODIUM (15 mg/kg, dose level High) was 144.7 MEQ/L. The “TOTAL BILIRUBIN” value (15 mg/kg, dose level High) was 0.1 mg/dL, the “TOTAL PROTEIN” value (15 mg/kg, dose level High) was 6.63 G/DL and the “URIC ACID” value (15 mg/kg, dose level High) was 1.43 mg/dL.

Reference: ChEMBL document CHEMBL3885881, “DrugMatrix”
